Measurements: PubChem BioAssay AID1963860 (Molecular Pharmacology Branch, DTP, NCI, 2024)

System: CN0375-F725-PDC KRAS spheroid viability
Test: Anticancer human tumor CN0375-F725-PDC patient-derived colon carcinoma cell line growth inhibition [KRAS2]
Details: spheroids with HUVEC and MSC; for IC50: curve of first compound; for viability, T/C: stronger effect = lower value
How it was run: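 KRAS-mutant tumor cells were grown as spheroids with HUVEC endothelial cells and human MSCs as stroma. Targeted agents were tested alone and with KRAS pathway inhibitors. Doses started at or near clinical Cmax, or 10 microM, descending half-log.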

[1] = second compound 0.1 µM, first compound 0.0316 µM
[2] = second compound 0.1 µM, first compound 0.1 µM
[3] = second compound 0.1 µM, first compound 0.316 µM
[4] = second compound 0.1 µM, first compound 1 µM
[5] = second compound 0.1 µM, first compound 3.16 µM
[6] = second compound 0.1 µM, first compound 10 µM
[7] = second compound 0.316 µM, first compound 0.0316 µM
[8] = second compound 0.316 µM, first compound 0.1 µM
[9] = second compound 0.316 µM, first compound 0.316 µM
[10] = second compound 0.316 µM, first compound 1 µM
[11] = second compound 0.316 µM, first compound 3.16 µM
[12] = second compound 0.316 µM, first compound 10 µM
[13] = second compound 1 µM, first compound 0.0316 µM
[14] = second compound 1 µM, first compound 0.1 µM
[15] = second compound 1 µM, first compound 0.316 µM
[16] = second compound 1 µM, first compound 1 µM
[17] = second compound 1 µM, first compound 3.16 µM
[18] = second compound 1 µM, first compound 10 µM
[19] = second compound 3.16 µM, first compound 0.0316 µM
[20] = second compound 3.16 µM, first compound 0.1 µM
[21] = second compound 3.16 µM, first compound 0.316 µM
[22] = second compound 3.16 µM, first compound 1 µM
[23] = second compound 3.16 µM, first compound 3.16 µM
[24] = second compound 3.16 µM, first compound 10 µM
[25] = second compound 10 µM, first compound 0.0316 µM
[26] = second compound 10 µM, first compound 0.1 µM
[27] = second compound 10 µM, first compound 0.316 µM
[28] = second compound 10 µM, first compound 1 µM
[29] = second compound 10 µM, first compound 3.16 µM
[30] = second compound 10 µM, first compound 10 µM
[31] = second compound 0.1 µM, first compound 0.000316 µM
[32] = second compound 0.1 µM, first compound 0.001 µM
[33] = second compound 0.1 µM, first compound 0.00316 µM
[34] = second compound 0.1 µM, first compound 0.01 µM
[35] = second compound 0.316 µM, first compound 0.000316 µM
[36] = second compound 0.316 µM, first compound 0.001 µM
[37] = second compound 0.316 µM, first compound 0.00316 µM
[38] = second compound 0.316 µM, first compound 0.01 µM
[39] = second compound 1 µM, first compound 0.000316 µM
[40] = second compound 1 µM, first compound 0.001 µM
[41] = second compound 1 µM, first compound 0.00316 µM
[42] = second compound 1 µM, first compound 0.01 µM
[43] = second compound 3.16 µM, first compound 0.000316 µM
[44] = second compound 3.16 µM, first compound 0.001 µM
[45] = second compound 3.16 µM, first compound 0.00316 µM
[46] = second compound 3.16 µM, first compound 0.01 µM
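Also: spheroids exposed to agents for 7 days.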

For `CC(C)NCC(C(=O)N1CCN(c2ncnc3c2C(C)CC3O)CC1)c1ccc(Cl)cc1` (stereo not given) + COc1cc2nc(C)nc(NC(C)c3cc(N)cc(C(F)(F)F)c3)c2cc1OC1CCOC1, the IC50 (second compound 0.1 µM) was > 10000 nM, the IC50 (second compound 0.316 µM) was > 10000 nM and the IC50 (second compound 1 µM) was > 10000 nM. The IC50 (second compound 3.16 µM) was > 10000 nM, the IC50 (second compound 10 µM) was < 31.6 nM and the viability, T/C [1] was 100%. The viability, T/C [2] was 100%, the viability, T/C [3] was 87.7% and the viability, T/C [4] was 88.3%. The viability, T/C [5] was 84.8%, the viability, T/C [6] was 74.4% and the viability, T/C [7] was 95.5%. For the same compound, the viability, T/C [8] was 97.3%, the viability, T/C [9] was 88.5% and the viability, T/C [10] was 85.1%. The viability, T/C [11] was 81.3%, the viability, T/C [12] was 71.1% and the viability, T/C [13] was 93.6%. For the same compound, the viability, T/C [14] was 93.3%, the viability, T/C [15] was 85.2% and the viability, T/C [16] was 80.7%. For the same compound, the viability, T/C [17] was 74.4%, the viability, T/C [18] was 65.5% and the viability, T/C [19] was 88.5%. For the same compound, the viability, T/C [20] was 81.7%, the viability, T/C [21] was 76.9% and the viability, T/C [22] was 66.9%. It also gave a viability, T/C [23] of 62.4%, a viability, T/C [24] of 50.5% and a viability, T/C [25] of 16.1%. The viability, T/C [26] was 18.6%, the viability, T/C [27] was 14.8% and the viability, T/C [28] was 10.8%. The viability, T/C [29] was 8.1% and the viability, T/C [30] was 5.67%.
For `CN(C)C/C=C/C(=O)Nc1cc2c(Nc3ccc(F)c(Cl)c3)ncnc2cc1O[C@H]1CCOC1` + C=CC(=O)N1CCN(c2nc(OCC3CCCN3C)nc3c2CCN(c2cccc4cccc(C)c24)C3)CC1CC#N, the IC50 (second compound 0.0316 µM) was > 100 nM, the IC50 (second compound 0.1 µM) was > 100 nM and the IC50 (second compound 0.316 µM) was > 100 nM. The IC50 (second compound 1 µM) was > 100 nM, the IC50 (second compound 3.16 µM) was < 0.316 nM and the viability, T/C (second compound 0.0316 µM, first compound 0.000316 µM) was 107%. For the same compound, the viability, T/C (second compound 0.0316 µM, first compound 0.001 µM) was 94.9%, the viability, T/C (second compound 0.0316 µM, first compound 0.00316 µM) was 88.8% and the viability, T/C (second compound 0.0316 µM, first compound 0.01 µM) was 84.8%. It also gave a viability, T/C (second compound 0.0316 µM, first compound 0.0316 µM) of 82.7%, a viability, T/C (second compound 0.0316 µM, first compound 0.1 µM) of 76.4% and a viability, T/C [31] of 105%. The viability, T/C [32] was 98.6%, the viability, T/C [33] was 88% and the viability, T/C [34] was 87.7%. The viability, T/C [1] was 80%, the viability, T/C [2] was 77.5% and the viability, T/C [35] was 102%. The viability, T/C [36] was 101%, the viability, T/C [37] was 84.2% and the viability, T/C [38] was 81.5%. The viability, T/C [7] was 73.4%, the viability, T/C [8] was 76.7% and the viability, T/C [39] was 90.6%. For the same compound, the viability, T/C [40] was 96.7%, the viability, T/C [41] was 83.4% and the viability, T/C [42] was 75.9%. It also gave a viability, T/C [13] of 75.6%, a viability, T/C [14] of 74.1% and a viability, T/C [43] of 30.9%. The viability, T/C [44] was 24.6%, the viability, T/C [45] was 8.56% and the viability, T/C [46] was 9.52%. The viability, T/C [19] was 10.6% and the viability, T/C [20] was 10.4%.
For `COC(=O)c1ccc2c(C(=Nc3ccc(N(C)C(=O)CN4CCN(C)CC4)cc3)c3ccccc3)c(O)[nH]c2c1` + COc1cc2nc(C)nc(NC(C)c3cc(N)cc(C(F)(F)F)c3)c2cc1OC1CCOC1, the IC50 (second compound 0.1 µM) was 2140 nM, the IC50 (second compound 0.316 µM) was 3580 nM and the IC50 (second compound 1 µM) was 2400 nM. The IC50 (second compound 3.16 µM) was 1460 nM, the IC50 (second compound 10 µM) was < 31.6 nM and the viability, T/C [1] was 97%. It also gave a viability, T/C [2] of 102%, a viability, T/C [3] of 91.3% and a viability, T/C [4] of 87.1%. The viability, T/C [5] was 31.2%, the viability, T/C [6] was 0.21% and the viability, T/C [7] was 97.9%. For the same compound, the viability, T/C [8] was 99.5%, the viability, T/C [9] was 86.3% and the viability, T/C [10] was 85.3%. For the same compound, the viability, T/C [11] was 55.4%, the viability, T/C [12] was 0.5% and the viability, T/C [13] was 91.8%. For the same compound, the viability, T/C [14] was 91.5%, the viability, T/C [15] was 85% and the viability, T/C [16] was 77%. It also gave a viability, T/C [17] of 41.6%, a viability, T/C [18] of 0.19% and a viability, T/C [19] of 85.8%. For the same compound, the viability, T/C [20] was 78.8%, the viability, T/C [21] was 80.6% and the viability, T/C [22] was 66.8%. The viability, T/C [23] was 16.1%, the viability, T/C [24] was 0.48% and the viability, T/C [25] was 18.3%. The viability, T/C [26] was 18.9%, the viability, T/C [27] was 13.1% and the viability, T/C [28] was 9.52%. The viability, T/C [29] was 1.91% and the viability, T/C [30] was 0.15%.
Work on `CC(C)n1nc(-c2ccc3oc(N)nc3c2)c2c(N)ncnc21` + CC1OCC2(CCN(c3cnc(Sc4ccnc(N)c4Cl)c(N)n3)CC2)C1N yielded an IC50 (second compound 0.1 µM) of 58.1 nM, an IC50 (second compound 0.316 µM) of 42.2 nM and an IC50 (second compound 1 µM) of 33.1 nM. It also gave an IC50 (second compound 3.16 µM) of 26.3 nM, an IC50 (second compound 10 µM) of 7.76 nM and a viability, T/C [31] of 91.6%. The viability, T/C [32] was 89.6%, the viability, T/C [33] was 73.9% and the viability, T/C [34] was 68.6%. The viability, T/C [1] was 54.2%, the viability, T/C [2] was 45.7% and the viability, T/C [35] was 84.5%. The viability, T/C [36] was 84.9%, the viability, T/C [37] was 73.1% and the viability, T/C [38] was 60.7%. It also gave a viability, T/C [7] of 54.6%, a viability, T/C [8] of 43.2% and a viability, T/C [39] of 82.5%. For the same compound, the viability, T/C [40] was 81.7%, the viability, T/C [41] was 68.6% and the viability, T/C [42] was 61.5%. It also gave a viability, T/C [13] of 51%, a viability, T/C [14] of 40.5% and a viability, T/C [43] of 74.6%. It also gave a viability, T/C [44] of 74.3%, a viability, T/C [45] of 67.5% and a viability, T/C [46] of 57.3%. It also gave a viability, T/C [19] of 46.9%, a viability, T/C [20] of 37.9% and a viability, T/C (second compound 10 µM, first compound 0.000316 µM) of 63.8%. The viability, T/C (second compound 10 µM, first compound 0.001 µM) was 65%, the viability, T/C (second compound 10 µM, first compound 0.00316 µM) was 56.4% and the viability, T/C (second compound 10 µM, first compound 0.01 µM) was 47.5%. The viability, T/C [25] was 39.9% and the viability, T/C [26] was 33.8%.
`COc1cc(Nc2ncc3c(n2)-c2ccc(Cl)cc2C(c2c(F)cccc2OC)=NC3)ccc1C(=O)O` + C=CC(=O)N1CCN(c2nc(=O)n(-c3c(C)ccnc3C(C)C)c3nc(-c4c(O)cccc4F)c(F)cc23)C(C)C1 was tested, and the IC50 (second compound 0.1 µM) was > 10000 nM, the IC50 (second compound 0.316 µM) was > 10000 nM and the IC50 (second compound 1 µM) was > 10000 nM. For the same compound, the IC50 (second compound 3.16 µM) was > 10000 nM, the IC50 (second compound 10 µM) was > 10000 nM and the viability, T/C [1] was 105%. For the same compound, the viability, T/C [2] was 95.7%, the viability, T/C [3] was 89.3% and the viability, T/C [4] was 96.5%. For the same compound, the viability, T/C [5] was 95.5%, the viability, T/C [6] was 80.9% and the viability, T/C [7] was 107%. The viability, T/C [8] was 104%, the viability, T/C [9] was 95% and the viability, T/C [10] was 96.5%. The viability, T/C [11] was 97%, the viability, T/C [12] was 80.5% and the viability, T/C [13] was 104%. The viability, T/C [14] was 102%, the viability, T/C [15] was 97% and the viability, T/C [16] was 94.5%. The viability, T/C [17] was 94.6%, the viability, T/C [18] was 79.4% and the viability, T/C [19] was 106%. It also gave a viability, T/C [20] of 105%, a viability, T/C [21] of 97.7% and a viability, T/C [22] of 94.2%. For the same compound, the viability, T/C [23] was 93.1%, the viability, T/C [24] was 85.3% and the viability, T/C [25] was 105%. The viability, T/C [26] was 102%, the viability, T/C [27] was 97.2% and the viability, T/C [28] was 88.6%. The viability, T/C [29] was 85.7% and the viability, T/C [30] was 79.5%.
